Measurements as given in patent US20230085307A1, “PYRIDAZINONE COMPOUND AND HERBICIDE” (NISSAN CHEMICAL CORPORATION, priority 2019, published 2023).

How the values were obtained:
windgrass [1] = test: Test Example 5: herbicidal effect by foliage application, plastic box (Table 20, symbol L); format: in vivo, windgrass (Apera spica-venti); settings: foliage application, 320 g/ha
In short: (§1)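 Plants were sown into sterilized diluvial soil under about 1.5 cm cover and kept in a greenhouse at 25° C. to 30° C. Fourteen days on, foliage received an even spray of the diluted emulsion. Herbicidal or crop effect was judged three weeks afterwards.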

blackgrass [2] = test: Test Example 4: herbicidal effect by soil treatment (Table 19, symbol J); format: in vivo, blackgrass (Alopecurus myosuroides)
In short: (§2)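 Pre-emergence style soil spray: seeds under ~1.5 cm sterilized diluvial soil received a uniform coat of emulsion diluted to the predetermined herbicide amount. Greenhouse 25–30° C; readout at week three on previously defined criteria.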

velvetleaf [3] = test: Test Example 5: herbicidal effect by foliage application, plastic box (Table 20, symbol M); format: in vivo, velvetleaf (Abutilon theophrasti); settings: foliage application, 320 g/ha
In short: as §1

redroot pigweed [4] = test: Test Example 5: herbicidal effect by foliage application, plastic box (Table 20, symbol N); format: in vivo, redroot pigweed (Amaranthus retroflexus); settings: foliage application, 320 g/ha, three weeks after application
In short: as §1

lambsquarters [5] = test: Test Example 5: herbicidal effect by foliage application, plastic box (Table 20, symbol O); format: in vivo, lambsquarters (Chenopodium album); settings: foliage application, 320 g/ha
In short: as §1

chickweed [6] = test: Test Example 4: herbicidal effect by soil treatment (Table 19, symbol P); format: in vivo, common chickweed (Stellaria media)
In short: as §2

blackgrass [7] = test: Test Example 5: herbicidal effect by foliage application, plastic box (Table 20, symbol J); format: in vivo, blackgrass (Alopecurus myosuroides); settings: foliage application, 320 g/ha
In short: as §1

rice flat sedge = test: Test Example 3: herbicidal effect by foliage application, Wagner pot (Table 18, symbol E); format: in vivo, rice flat sedge (Cyperus iria); settings: 320 g/ha
In short: (§3)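 Plants were sown in alluvial soil held under 0.1–0.5 cm standing water and grown 14 days in a greenhouse at 25–30 °C. An emulsifiable formulation, water-diluted to the set dose, was then sprayed onto the foliage, and effects were scored three weeks later using previously defined criteria.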

chickweed [8] = test: Test Example 5: herbicidal effect by foliage application, plastic box (Table 20, symbol P); format: in vivo, common chickweed (Stellaria media); settings: foliage application, 320 g/ha, three weeks after application
In short: as §1

barnyard grass [9] = test: Test Example 3: herbicidal effect by foliage application, Wagner pot (Table 18, symbol H); format: in vivo, barnyard grass (Echinochloa crus-galli); settings: 320 g/ha
In short: as §3

windgrass [10] = test: Test Example 4: herbicidal effect by soil treatment (Table 19, symbol L); format: in vivo, windgrass (Apera spica-venti)
In short: as §2

oval-leafed pondweed = test: Test Example 2: herbicidal activity, application during weed generation under submerged conditions (Table 17, symbol C); format: in vivo, oval-leafed pondweed (Monochoria vaginalis); settings: AAH 320 g/ha; application during weed generation, submerged conditions
In short: (§4)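 Steps: fill Wagner pots with alluvial soil; add water to give 4 cm depth; sow the species mixed; grow under glass at 25–30° C.; at 1–2 leaves apply water-diluted emulsion formulation to the water surface at a fixed herbicide amount; score after 3 weeks.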

late watergrass = test: Test Example 2: herbicidal activity, application during weed generation under submerged conditions (Table 17, symbol A); format: in vivo, late watergrass (Echinochloa oryzicola); settings: AAH 320 g/ha; application during weed generation, submerged conditions
In short: as §4

Italian ryegrass [11] = test: Test Example 5: herbicidal effect by foliage application, plastic box (Table 20, symbol K); format: in vivo, Italian ryegrass (Lolium multiflorum); settings: foliage application, 320 g/ha
In short: as §1

Chinese sprangletop = test: Test Example 3: herbicidal effect by foliage application, Wagner pot (Table 18, symbol D); format: in vivo, chinese sprangletop (Leptochloa chinensis); settings: 320 g/ha
In short: as §3

Italian ryegrass [12] = test: Test Example 4: herbicidal effect by soil treatment (Table 19, symbol K); format: in vivo, Italian ryegrass (Lolium multiflorum)
In short: as §2

barnyard grass [13] = test: Test Example 5: herbicidal effect by foliage application, plastic box (Table 20, symbol H); format: in vivo, barnyard grass (Echinochloa crus-galli); settings: foliage application, 320 g/ha
In short: as §1

Japanese bulrush = test: Test Example 2: herbicidal activity, application during weed generation under submerged conditions (Table 17, symbol B); format: in vivo, Japanese bulrush (Schoenoplectus juncoides); settings: AAH 320 g/ha; application during weed generation, submerged conditions
In short: as §4

persian speedwell [14] = test: Test Example 5: herbicidal effect by foliage application, plastic box (Table 20, symbol R); format: in vivo, Persian speedwell (Veronica persica); settings: foliage application, 320 g/ha
In short: as §1

wild oat [15] = test: Test Example 4: herbicidal effect by soil treatment (Table 19, symbol I); format: in vivo, wild oat (Avena fatua)
In short: as §2

green foxtail [16] = test: Test Example 5: herbicidal effect by foliage application, plastic box (Table 20, symbol G); format: in vivo, green foxtail (Setaria viridis); settings: foliage application, 320 g/ha
In short: as §1

southern crabgrass [17] = test: Test Example 5: herbicidal effect by foliage application, plastic box (Table 20, symbol F); format: in vivo, southern crabgrass (Digitaria ciliaris); settings: foliage application, 320 g/ha
In short: as §1

persian speedwell [18] = test: Test Example 4: herbicidal effect by soil treatment (Table 19, symbol R); format: in vivo, Persian speedwell (Veronica persica)
In short: as §2

wild oat [19] = test: Test Example 5: herbicidal effect by foliage application, plastic box (Table 20, symbol I); format: in vivo, wild oat (Avena fatua); settings: foliage application, 320 g/ha
In short: as §1

redroot pigweed [20] = test: Test Example 4: herbicidal effect by soil treatment (Table 19, symbol N); format: in vivo, redroot pigweed (Amaranthus retroflexus); settings: 320 g/ha
In short: as §2

barnyard grass [21] = test: Test Example 4: herbicidal effect by soil treatment (Table 19, symbol H); format: in vivo, barnyard grass (Echinochloa crus-galli); settings: 320 g/ha
In short: as §2

lambsquarters [22] = test: Test Example 4: herbicidal effect by soil treatment (Table 19, symbol O); format: in vivo, lambsquarters (Chenopodium album); settings: 320 g/ha
In short: as §2

velvetleaf [23] = test: Test Example 4: herbicidal effect by soil treatment (Table 19, symbol M); format: in vivo, velvetleaf (Abutilon theophrasti); settings: 320 g/ha
In short: as §2

green foxtail [24] = test: Test Example 4: herbicidal effect by soil treatment (Table 19, symbol G); format: in vivo, green foxtail (Setaria viridis); settings: 320 g/ha
In short: as §2

southern crabgrass [25] = test: Test Example 4: herbicidal effect by soil treatment (Table 19, symbol F); format: in vivo, southern crabgrass (Digitaria ciliaris); settings: 320 g/ha
In short: as §2

[26] = amount of applied herbicide 320 g/ha

CCCC(=O)Oc1c(C)nn(C)c(=O)c1-c1c(-c2ccc(OC(F)(F)F)cc2)sc2ccccc12 [1-032]
herbicidal effect grade, L: windgrass (windgrass [1]; three weeks after application): 0 (Herbicidal rate of 5% or less (almost no effect))
herbicidal effect rating, J: blackgrass (blackgrass [2]; [26]): 0 (Herbicidal rate of 5% or less (almost no effect))
herbicidal effect grade, M: velvetleaf (velvetleaf [3]; three weeks after application): 5 (Herbicidal rate of 90% or more (almost completely withered))
herbicidal effect grade, N: redroot pigweed (redroot pigweed [4]): 4 (Herbicidal rate of 70% or more and less than 90%)
herbicidal effect grade, O: lambsquarters (lambsquarters [5]; three weeks after application): 5 (Herbicidal rate of 90% or more (almost completely withered))
herbicidal effect rating, P: chickweed (chickweed [6]; [26]): 3 (Herbicidal rate of 40% or more and less than 70%)
herbicidal effect grade, J: blackgrass (blackgrass [7]; three weeks after application): 2 (Herbicidal rate of 20% or more and less than 40%)
herbicidal effect on E (rice flat sedge), rating 0-5 (rice flat sedge): 5 (Herbicidal rate of 90% or more (almost completely withered))
herbicidal effect grade, P: chickweed (chickweed [8]): 5 (Herbicidal rate of 90% or more (almost completely withered))
herbicidal effect on H (barnyard grass), rating 0-5 (barnyard grass [9]): 4 (Herbicidal rate of 70% or more and less than 90%)
herbicidal effect rating, L: windgrass (windgrass [10]; [26]): 0 (Herbicidal rate of 5% or less (almost no effect))
herbicidal effect rating, C: oval-leafed pondweed (oval-leafed pondweed): 3 (Herbicidal rate of 40% or more and less than 70%)
herbicidal effect rating, A: late watergrass (late watergrass): 0 (Herbicidal rate of 5% or less (almost no effect))
herbicidal effect grade, K: Italian ryegrass (Italian ryegrass [11]; three weeks after application): 3 (Herbicidal rate of 40% or more and less than 70%)
herbicidal effect on D (Chinese sprangletop), rating 0-5 (Chinese sprangletop): 0 (Herbicidal rate of 5% or less (almost no effect))
herbicidal effect rating, K: Italian ryegrass (Italian ryegrass [12]; [26]): 4 (Herbicidal rate of 70% or more and less than 90%)
herbicidal effect grade, H: barnyard grass (barnyard grass [13]; three weeks after application): 3 (Herbicidal rate of 40% or more and less than 70%)
herbicidal effect rating, B: Japanese bulrush (Japanese bulrush): 1 (Herbicidal rate of 5% or more and less than 20%)
herbicidal effect grade, R: persian speedwell (persian speedwell [14]; three weeks after application): 5 (Herbicidal rate of 90% or more (almost completely withered))
herbicidal effect rating, I: wild oat (wild oat [15]; [26]): 0 (Herbicidal rate of 5% or less (almost no effect))
herbicidal effect grade, G: green foxtail (green foxtail [16]; three weeks after application): 4 (Herbicidal rate of 70% or more and less than 90%)
herbicidal effect grade, F: southern crabgrass (southern crabgrass [17]; three weeks after application): 0 (Herbicidal rate of 5% or less (almost no effect))
herbicidal effect rating, R: persian speedwell (persian speedwell [18]; [26]): 5 (Herbicidal rate of 90% or more (almost completely withered))
herbicidal effect grade, I: wild oat (wild oat [19]; three weeks after application): 0 (Herbicidal rate of 5% or less (almost no effect))

COCCOCOc1c(C)nn(C)c(=O)c1-c1c(-c2ccc(C(C)C)cc2)sc2ccc(F)cc12 [2-015]
effect on windgrass (L) (windgrass [1]; 3 weeks after application): 4 (Herbicidal rate of 70% or more and less than 90%)
herbicidal effect rating, J: blackgrass (blackgrass [2]; 320 g/ha): 0 (Herbicidal rate of 5% or less (almost no effect))
effect on velvetleaf (M) (velvetleaf [3]; 3 weeks after application): 5 (Herbicidal rate of 90% or more (almost completely withered))
effect on lambsquarters (O) (lambsquarters [5]; 3 weeks after application): 5 (Herbicidal rate of 90% or more (almost completely withered))
herbicidal effect rating, P: chickweed (chickweed [6]; 320 g/ha): 0 (Herbicidal rate of 5% or less (almost no effect))
herbicidal effect rating, N: redroot pigweed (redroot pigweed [20]): 5 (Herbicidal rate of 90% or more (almost completely withered))
herbicidal effect rating, H: barnyard grass (barnyard grass [21]): 0 (Herbicidal rate of 5% or less (almost no effect))
effect on blackgrass (J) (blackgrass [7]; 3 weeks after application): 0 (Herbicidal rate of 5% or less (almost no effect))
herbicidal effect on E (rice flat sedge), rating 0-5 (rice flat sedge): 5 (Herbicidal rate of 90% or more (almost completely withered))
herbicidal effect rating, O: lambsquarters (lambsquarters [22]): 2 (Herbicidal rate of 20% or more and less than 40%)
herbicidal effect on H (barnyard grass), rating 0-5 (barnyard grass [9]): 5 (Herbicidal rate of 90% or more (almost completely withered))
herbicidal effect rating, L: windgrass (windgrass [10]; 320 g/ha): 0 (Herbicidal rate of 5% or less (almost no effect))
herbicidal effect rating, C: oval-leafed pondweed (oval-leafed pondweed): 0 (Herbicidal rate of 5% or less (almost no effect))
herbicidal effect rating, A: late watergrass (late watergrass): 4 (Herbicidal rate of 70% or more and less than 90%)
effect on Italian ryegrass (K) (Italian ryegrass [11]; 3 weeks after application): 0 (Herbicidal rate of 5% or less (almost no effect))
herbicidal effect on D (Chinese sprangletop), rating 0-5 (Chinese sprangletop): 5 (Herbicidal rate of 90% or more (almost completely withered))
herbicidal effect rating, M: velvetleaf (velvetleaf [23]): 0 (Herbicidal rate of 5% or less (almost no effect))
herbicidal effect rating, K: Italian ryegrass (Italian ryegrass [12]; 320 g/ha): 0 (Herbicidal rate of 5% or less (almost no effect))
herbicidal effect rating, G: green foxtail (green foxtail [24]): 0 (Herbicidal rate of 5% or less (almost no effect))
effect on barnyard grass (H) (barnyard grass [13]; 3 weeks after application): 3 (Herbicidal rate of 40% or more and less than 70%)
herbicidal effect rating, B: Japanese bulrush (Japanese bulrush): 0 (Herbicidal rate of 5% or less (almost no effect))
effect on persian speedwell (R) (persian speedwell [14]; 3 weeks after application): 5 (Herbicidal rate of 90% or more (almost completely withered))
herbicidal effect rating, I: wild oat (wild oat [15]; 320 g/ha): 0 (Herbicidal rate of 5% or less (almost no effect))
effect on green foxtail (G) (green foxtail [16]; 3 weeks after application): 0 (Herbicidal rate of 5% or less (almost no effect))
effect on southern crabgrass (F) (southern crabgrass [17]; 3 weeks after application): 1 (Herbicidal rate of 5% or more and less than 20%)
herbicidal effect rating, R: persian speedwell (persian speedwell [18]; 320 g/ha): 4 (Herbicidal rate of 70% or more and less than 90%)
herbicidal effect rating, F: southern crabgrass (southern crabgrass [25]): 0 (Herbicidal rate of 5% or less (almost no effect))
effect on wild oat (I) (wild oat [19]; 3 weeks after application): 0 (Herbicidal rate of 5% or less (almost no effect))
